Assays:
human A2A receptors = target: T1, human A2A receptors (Homo sapiens, UniProt P29274); assay: Functional human A2A receptor activity, recombinant HEK293 cells, cAMP (HTRF); assay type: cell-based; settings: read-out: A2A (Category)
T1 construct: expressed in transfected cells; host or cells: HEK293
Method in brief: (§1)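 15 min incubation → HTRF cAMP reagents added → cellular cAMP read on plate reader. cAMP serves as adenosine receptor second messenger.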

human A2B receptors = target: T2, human A2B receptors (Homo sapiens, UniProt P29275); assay: Functional human A2B receptor activity, recombinant HEK293 cells, cAMP (HTRF); assay type: cell-based; settings: read-out: A2B (Category)
T2 construct: expressed in transfected cells; host or cells: HEK293
T2 sequence (P29275 1-332): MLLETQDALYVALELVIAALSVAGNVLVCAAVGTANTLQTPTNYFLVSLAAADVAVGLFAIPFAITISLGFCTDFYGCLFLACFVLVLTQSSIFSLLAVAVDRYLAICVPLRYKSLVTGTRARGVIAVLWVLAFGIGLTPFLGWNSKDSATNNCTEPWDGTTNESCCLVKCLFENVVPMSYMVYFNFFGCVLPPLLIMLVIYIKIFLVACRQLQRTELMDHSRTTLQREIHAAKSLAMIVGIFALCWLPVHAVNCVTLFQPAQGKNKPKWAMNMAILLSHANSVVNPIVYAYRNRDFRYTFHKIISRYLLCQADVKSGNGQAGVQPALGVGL
Method in brief: as §1

T1 sequence (P29274 whole entry): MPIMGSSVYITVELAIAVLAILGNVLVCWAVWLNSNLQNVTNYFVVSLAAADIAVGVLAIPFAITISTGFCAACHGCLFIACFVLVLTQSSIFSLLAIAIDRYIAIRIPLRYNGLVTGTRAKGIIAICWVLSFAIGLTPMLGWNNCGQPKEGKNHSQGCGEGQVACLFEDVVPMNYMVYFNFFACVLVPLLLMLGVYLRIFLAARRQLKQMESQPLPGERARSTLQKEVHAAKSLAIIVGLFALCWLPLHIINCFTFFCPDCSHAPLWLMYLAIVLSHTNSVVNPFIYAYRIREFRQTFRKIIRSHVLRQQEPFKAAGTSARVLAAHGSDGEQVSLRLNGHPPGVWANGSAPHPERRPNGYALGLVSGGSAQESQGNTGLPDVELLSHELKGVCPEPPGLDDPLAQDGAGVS

Compound | IC50 (human A2A receptors) | IC50 (human A2B receptors)
CC(C)(C)OC(=O)NC1COCCN(C(=O)c2cc3c(cn2)c(-c2cnc4c(F)cc(F)cn24)nn3CC(F)(F)F)C1 (stereo not drawn) [Compound 204, {4-[3-(6,8-Difluoro-imidazo[1,2-a]pyridin-3-yl)-1-(2,2,2-trifluoro-ethyl)-1H-pyrazolo[4,3-c]pyridine-6-carbonyl]-1,4-oxazepan-6-yl}-carbamic Acid Tert-Butyl Ester] | < 100 nM | < 1000 nM
O=C(c1cc2c(cn1)c(-c1cnc3c(F)cc(F)cn13)nn2CC(F)(F)F)N1CCOC2CC21 (stereo not drawn) [Compound 205, [3-(6,8-Difluoro-imidazo[1,2-a]pyridin-3-yl)-1-(2,2,2-trifluoro-ethyl)-1H-pyrazolo[4,3-c]pyridin-6-yl]-(2-oxa-5-aza-bicyclo[4.1.0]hept-5-yl)-methanone] | < 100 nM | < 1000 nM
O=C(c1cc2c(cn1)c(-c1coc3ccccc13)nn2CC(F)(F)F)N1CCC(O)CC1 [Compound 207, [3-Benzofuran-3-yl-1-(2,2,2-trifluoro-ethyl)-1H-pyrazolo[4,3-c]pyridin-6-yl]-(4-hydroxy-piperidin-1-yl)-methanone] | < 100 nM | < 100 nM
CC1(O)CCN(C(=O)c2cc3c(cn2)c(-c2coc4ccccc24)nn3CC(F)(F)F)CC1 [Compound 208, [3-Benzofuran-3-yl-1-(2,2,2-trifluoro-ethyl)-1H-pyrazolo[4,3-c]pyridin-6-yl]-(4-hydroxy-4-methyl-piperidin-1-yl)-methanone] | < 100 nM | < 100 nM
O=C(c1cc2c(cn1)c(-c1coc3ccccc13)nn2CC(F)(F)F)N1[C@@H]2CC[C@H]1C[C@@H](O)C2 [Compound 209, [3-Benzofuran-3-yl-1-(2,2,2-trifluoro-ethyl)-1H-pyrazolo[4,3-c]pyridin-6-yl]-(3-endo-hydroxy-8-aza-bicyclo[3.2.1]oct-8-yl)-methanone] | < 100 nM | < 100 nM
CCC1(O)C2CCC1CN(C(=O)c1cc3c(cn1)c(-c1coc4ccccc14)nn3CC(F)(F)F)C2 (stereo not drawn) [Compound 210, [3-Benzofuran-3-yl-1-(2,2,2-trifluoro-ethyl)-1H-pyrazolo[4,3-c]pyridin-6-yl]-(8-exo-ethyl-8-endo-hydroxy-3-aza-bicyclo[3.2.1]oct-3-yl)-methanone] | < 100 nM | < 1000 nM
CC1(O)CC2CC1CN2C(=O)c1cc2c(cn1)c(-c1coc3ccccc13)nn2CC(F)(F)F (stereo not drawn) [Compound 211, [3-Benzofuran-3-yl-1-(2,2,2-trifluoro-ethyl)-1H-pyrazolo[4,3-c]pyridin-6-yl]-(5-endo-hydroxy-5-exo-methyl-2-aza-bicyclo[2.2.1]hept-2-yl)-methanone] | < 100 nM | < 1000 nM
C[C@]1(O)[C@@H]2CC[C@H]1CN(C(=O)c1cc3c(cn1)c(-c1coc4ccccc14)nn3CC(F)(F)F)C2 [Compound 212, [3-Benzofuran-3-yl-1-(2,2,2-trifluoro-ethyl)-1H-pyrazolo[4,3-c]pyridin-6-yl]-(8-endo-hydroxy-8-exo-methyl-3-aza-bicyclo[3.2.1]oct-3-yl)-methanone] | < 100 nM | < 1000 nM
C#CC1(O)C2CCC1CN(C(=O)c1cc3c(cn1)c(-c1coc4ccccc14)nn3CC(F)(F)F)C2 (stereo not drawn) [Compound 214] | < 100 nM | < 1000 nM
COCC1CCCN1C(=O)c1cc2c(cn1)c(-c1coc3ccccc13)nn2CC(F)(F)F (stereo not drawn) [Compound 215, [3-Benzofuran-3-yl-1-(2,2,2-trifluoro-ethyl)-1H-pyrazolo[4,3-c]pyridin-6-yl]-(2-methoxymethyl-pyrrolidin-1-yl)-methanone] | < 100 nM | < 1000 nM
O=C(c1cc2c(cn1)c(-c1coc3ccccc13)nn2CC(F)(F)F)N1CCC(F)CC1 [Compound 216, [3-Benzofuran-3-yl-1-(2,2,2-trifluoro-ethyl)-1H-pyrazolo[4,3-c]pyridin-6-yl]-(4-fluoro-piperidin-1-yl)-methanone] | < 100 nM | < 1000 nM
O=C(c1cc2c(cn1)c(-c1coc3ccccc13)nn2CC(F)(F)F)N1CCOCC(F)(F)C1 [Compound 217] | < 100 nM | < 100 nM
O=C(c1cc2c(cn1)c(-c1coc3ccccc13)nn2CC(F)(F)F)N1CC2CCC(C1)C2O (stereo not drawn) [Compound 218, [3-Benzofuran-3-yl-1-(2,2,2-trifluoro-ethyl)-1H-pyrazolo[4,3-c]pyridin-6-yl]-(8-endo-hydroxy-3-aza-bicyclo[3.2.1]oct-3-yl)-methanone] | < 100 nM | < 100 nM
CC1(C)CC(O)CCN1C(=O)c1cc2c(cn1)c(-c1coc3ccccc13)nn2CC(F)(F)F (stereo not drawn) [Compound 219, [3-Benzofuran-3-yl-1-(2,2,2-trifluoro-ethyl)-1H-pyrazolo[4,3-c]pyridin-6-yl]-(4-hydroxy-2,2-dimethyl-piperidin-1-yl)-methanone] | < 100 nM | < 1000 nM
O=C(c1cc2c(cn1)c(-c1coc3ccccc13)nn2CC(F)F)N1C2CCC1CC(O)C2 (stereo not drawn) [Compound 220, [3-Benzofuran-3-yl-1-(2,2-difluoro-ethyl)-1H-pyrazolo[4,3-c]pyridin-6-yl]-(3-endo-hydroxy-8-exo-methyl-3-aza-bicyclo[3.2.1]oct-3-yl)-methanone] | < 100 nM | < 1000 nM
O=C(c1cc2c(cn1)c(-c1coc3ccccc13)nn2CCF)N1[C@@H]2CC[C@H]1C[C@@H](O)C2 [Compound 221, [3-Benzofuran-3-yl-1-(2-fluoro-ethyl)-1H-pyrazolo[4,3-c]pyridin-6-yl]-(3-endo-hydroxy-8-aza-bicyclo[3.2.1]oct-8-yl)-methanone] | < 100 nM | < 100 nM
CCCn1nc(-c2coc3ccccc23)c2cnc(C(=O)N3[C@@H]4CC[C@H]3C[C@@H](O)C4)cc21 [Compound 222, (3-Benzofuran-3-yl-1-propyl-1H-pyrazolo[4,3-c]pyridin-6-yl)-(3-endo-hydroxy-8-aza-bicyclo[3.2.1]oct-8-yl)-methanone] | < 100 nM | < 1000 nM
O=C(c1cc2c(cn1)c(-c1coc3ccccc13)nn2CC(F)(F)F)N1CCC(F)(F)CC1 [Compound 225, [3-(benzofuran-3-yl)-1-(2,2,2-trifluoroethyl)pyrazolo[4,3-c]pyridin-6-yl]-(4,4-difluoro-1-piperidyl)methanone] | < 100 nM | < 1000 nM
O=C(c1cc2c(cn1)c(-c1coc3ccccc13)nn2CC(F)(F)F)N1CCCC(F)(F)C1 [Compound 226, [3-(benzofuran-3-yl)-1-(2,2,2-trifluoroethyl)pyrazolo[4,3-c]pyridin-6-yl]-(3,3-difluoro-1-piperidyl)methanone] | < 100 nM | < 1000 nM
O=C(c1cc2c(cn1)c(-c1coc3ccccc13)nn2CC(F)(F)F)N1CCCC(O)C1 (stereo not drawn) [Compound 227, [3-Benzofuran-3-yl-1-(2,2,2-trifluoro-ethyl)-1H-pyrazolo[4,3-c]pyridin-6-yl]-(3-hydroxy-piperidin-1-yl)-methanone] | < 100 nM | < 100 nM
O=C(c1cc2c(cn1)c(-c1coc3ccccc13)nn2CC(F)(F)F)N1CCCC(O)CC1 (stereo not drawn) [Compound 228, [3-(benzofuran-3-yl)-1-(2,2,2-trifluoroethyl)pyrazolo[4,3-c]pyridin-6-yl]-(4-hydroxyazepan-1-yl)methanone] | < 100 nM | < 100 nM

From US20210380606A1, “5-AZAINDAZOLE DERIVATIVES AS ADENOSINE RECEPTOR ANTAGONISTS” (Merck Patent GmbH, priority 2018, published 2021)
